In ChEMBL document CHEMBL1132393, “Structure-activity relationships of a novel class of Src SH2 inhibitors” (Bioorg Med Chem Lett, 1999):

target: Proto-oncogene tyrosine-protein kinase Src (Homo sapiens, UniProt P12931); assay: Binding affinity against Src-homology 2 (SRC SH2).
Sequence (P12931 2-536 limits assumed): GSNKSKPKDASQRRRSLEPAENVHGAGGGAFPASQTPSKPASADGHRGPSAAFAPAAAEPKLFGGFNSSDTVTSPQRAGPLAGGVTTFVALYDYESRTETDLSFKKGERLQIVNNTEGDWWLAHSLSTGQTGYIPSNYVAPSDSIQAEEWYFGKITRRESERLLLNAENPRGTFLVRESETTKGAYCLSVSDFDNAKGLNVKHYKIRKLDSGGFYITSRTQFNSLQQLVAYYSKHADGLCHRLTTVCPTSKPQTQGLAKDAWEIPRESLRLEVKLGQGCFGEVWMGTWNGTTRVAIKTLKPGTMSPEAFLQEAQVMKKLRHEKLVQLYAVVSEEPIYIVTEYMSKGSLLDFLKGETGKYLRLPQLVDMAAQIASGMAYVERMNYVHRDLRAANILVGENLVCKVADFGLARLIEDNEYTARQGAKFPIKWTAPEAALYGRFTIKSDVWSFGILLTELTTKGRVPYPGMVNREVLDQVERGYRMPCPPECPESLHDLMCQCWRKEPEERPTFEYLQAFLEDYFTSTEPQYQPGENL

IC50 | Structure (SMILES)
29 µM | CC(=O)N[C@@H](Cc1ccc(OP(=O)(O)O)cc1)C(=O)N[C@@H](CCC(=O)O)c1nc(CC2CCCCC2)no1
62 µM | CC(=O)N[C@@H](Cc1ccc(OP(=O)(O)O)cc1)C(=O)N[C@@H](Cc1c[nH]c2ccccc12)c1nc(CC2CCCCC2)no1
16 µM | CCCCCCc1noc([C@H](Cc2c[nH]c3ccccc23)NC(=O)[C@H](Cc2ccc(OP(=O)(O)O)cc2)NC(C)=O)n1
65 µM | CCCCCc1noc([C@H](CC)NC(=O)[C@H](Cc2ccc(OP(=O)(O)O)cc2)NC(C)=O)n1
25 µM | CC(=O)N[C@@H](Cc1ccc(OP(=O)(O)O)cc1)C(=O)N[C@@H](Cc1c[nH]c2ccccc12)c1nc(Cc2ccccc2)no1
36 µM | CCCCCc1noc([C@H](Cc2c[nH]c3ccccc23)NC(=O)[C@H](Cc2ccc(OP(=O)(O)O)cc2)NC(C)=O)n1
7 µM | CCCCCCCc1noc([C@H](CCC(=O)O)NC(=O)[C@H](Cc2ccc(OP(=O)(O)O)cc2)NC(C)=O)n1
278 µM | CC(=O)N[C@@H](Cc1ccc(OP(=O)(O)O)cc1)C(=O)N[C@@H](CCC(N)=O)c1nc(CC2CCCCC2)no1
61 µM | CC(=O)N[C@@H](Cc1ccc(OP(=O)(O)O)cc1)C(=O)N[C@@H](CCC(=O)O)c1nc(CCC(C)C)no1
76 µM | CC(=O)N[C@@H](Cc1ccc(OP(=O)(O)O)cc1)C(=O)N[C@@H](CCC(=O)O)c1nc(CCC(C)C)cs1
14 µM | CCCCCCc1cnc([C@H](Cc2c[nH]c3ccccc23)NC(=O)[C@H](Cc2ccc(OP(=O)(O)O)cc2)NC(C)=O)s1
24 µM | CCCCCCc1noc([C@H](CCC(N)=O)NC(=O)[C@H](Cc2ccc(OP(=O)(O)O)cc2)NC(C)=O)n1

Further lines, the molecule ahead of its results:

Structure (SMILES) | IC50
CC(=O)N[C@@H](Cc1ccc(OP(=O)(O)O)cc1)C(=O)N[C@@H](Cc1c[nH]c2ccccc12)c1nc(Cc2cccc3ccccc23)no1 | 279 µM
CC(=O)N[C@@H](Cc1ccc(OP(=O)(O)O)cc1)C(=O)N[C@@H](CCC(=O)O)c1nc(CC(C)C)no1 | 166 µM
CC(=O)N[C@@H](Cc1ccc(OP(=O)(O)O)cc1)C(=O)N[C@@H](CCC(=O)O)c1nc(Cc2ccccc2)no1 | 92 µM
CC(=O)N[C@@H](Cc1ccc(OP(=O)(O)O)cc1)C(=O)N[C@@H](Cc1c[nH]c2ccccc12)c1nc(CCCC(C)C)no1 | 89 µM
CCCCCCc1noc([C@H](CCC(=O)O)NC(=O)[C@H](Cc2ccc(OP(=O)(O)O)cc2)NC(C)=O)n1 | 8 µM
CCCCCCCc1noc([C@H](Cc2c[nH]c3ccccc23)NC(=O)[C@H](Cc2ccc(OP(=O)(O)O)cc2)NC(C)=O)n1 | 35 µM
CC(=O)N[C@@H](Cc1ccc(OP(=O)(O)O)cc1)C(=O)N[C@@H](CCC(=O)O)c1nc(CC2CCCCC2)cs1 | 26 µM
CCCCc1noc([C@H](CCC(N)=O)NC(=O)[C@H](Cc2ccc(OP(=O)(O)O)cc2)NC(C)=O)n1 | 384 µM
CCCCCc1noc([C@H](CCC(=O)O)NC(=O)[C@H](Cc2ccc(OP(=O)(O)O)cc2)NC(C)=O)n1 | 21 µM
CC(=O)N[C@@H](Cc1ccc(OP(=O)(O)O)cc1)C(=O)N[C@@H](Cc1c[nH]c2ccccc12)c1nc(CCC(C)C)no1 | 33 µM
CC(=O)N[C@@H](Cc1ccc(OP(=O)(O)O)cc1)C(=O)N[C@@H](CCC(N)=O)c1nc(CCC(C)C)no1 | 320 µM
CC(=O)N[C@@H](Cc1ccc(OP(=O)(O)O)cc1)C(=O)NCc1nc(CC2CCCCC2)cs1 | 483 µM
CC[C@H](NC(=O)[C@H](Cc1ccc(OP(=O)(O)O)cc1)NC(C)=O)c1nc(CCC(C)C)no1 | 111 µM
CC(=O)N[C@@H](Cc1ccc(OP(=O)(O)O)cc1)C(=O)N[C@@H](CCC(=O)O)c1nc(CC(C)C)cs1 | 218 µM
CCCCCCCc1noc([C@H](CC)NC(=O)[C@H](Cc2ccc(OP(=O)(O)O)cc2)NC(C)=O)n1 | 22 µM
CC(=O)N[C@@H](Cc1ccc(OP(=O)(O)O)cc1)C(=O)N[C@@H](CCC(=O)O)c1ncc(CC2CCCCC2)s1 | 16 µM
CCCCCCc1noc([C@H](CC)NC(=O)[C@H](Cc2ccc(OP(=O)(O)O)cc2)NC(C)=O)n1 | 25 µM
CCCCCCc1cnc([C@H](CC)NC(=O)[C@H](Cc2ccc(OP(=O)(O)O)cc2)NC(C)=O)s1 | 12 µM
CC(=O)N[C@@H](Cc1ccc(OP(=O)(O)O)cc1)C(=O)NCc1nc(CC2CCCCC2)no1 | 896 µM
